Several values for one entry are separate records, joined by “and”; a condition that tells them apart may be missing. Equal entries are not always repeated. Structures can show the parent of a compound that is named as a salt.
Tests used:
[1] = system: 60 human cancer cell lines; experiment: NCI-60 single-dose cytotoxicity assay; type: cell-based; conditions: mean-graph midpoint of percent growth of 60 human cancer cell lines, 10 μM drug, 48 h, relative to no-drug control and time zero
Description: The new indenoisoquinolines were evaluated for cancer cell growth inhibitory activities. The National Cancer Institute's NCI-60 cytotoxicity assay measures the ability of test agents to inhibit the growth of approximately 60 different cancer cell lines. In the initial single-dose assay, cells are treated with a 10 μM dose of test agent. The growth of treated cells versus untreated cells is then compared. If a test agent induces a sufficiently low mean growth percent, it is promoted to five-dose testing to determine a mean graph midpoint (MGM) GI50 value. In five-dose testing, cells are treated with test agent concentrations ranging from 10^−8 to 10^−4 M. The concentration required to achieve 50% growth inhibition in a particular cell line is calculated. In situations in which this value is greater than 100 μM or less than 0.01 μM, it is recorded as 100 μM and 0.01 μM, respectively. The values for each of the tested cell lines are averaged to obtain a mean graph midpoint (MGM) GI50 value. MGM GI50 values are often, but not always, determined from two separate rounds (Table 1).

Top1 = molecular target: T1, Top1 (Homo sapiens, UniProt P11387); experiment: Top1-mediated DNA cleavage assay; type: biochemical; conditions: score based on the activity of 1 μM 1 (camptothecin); tested at 0.1, 1, 10, 100 μM
T1 sequence (P11387 1-765): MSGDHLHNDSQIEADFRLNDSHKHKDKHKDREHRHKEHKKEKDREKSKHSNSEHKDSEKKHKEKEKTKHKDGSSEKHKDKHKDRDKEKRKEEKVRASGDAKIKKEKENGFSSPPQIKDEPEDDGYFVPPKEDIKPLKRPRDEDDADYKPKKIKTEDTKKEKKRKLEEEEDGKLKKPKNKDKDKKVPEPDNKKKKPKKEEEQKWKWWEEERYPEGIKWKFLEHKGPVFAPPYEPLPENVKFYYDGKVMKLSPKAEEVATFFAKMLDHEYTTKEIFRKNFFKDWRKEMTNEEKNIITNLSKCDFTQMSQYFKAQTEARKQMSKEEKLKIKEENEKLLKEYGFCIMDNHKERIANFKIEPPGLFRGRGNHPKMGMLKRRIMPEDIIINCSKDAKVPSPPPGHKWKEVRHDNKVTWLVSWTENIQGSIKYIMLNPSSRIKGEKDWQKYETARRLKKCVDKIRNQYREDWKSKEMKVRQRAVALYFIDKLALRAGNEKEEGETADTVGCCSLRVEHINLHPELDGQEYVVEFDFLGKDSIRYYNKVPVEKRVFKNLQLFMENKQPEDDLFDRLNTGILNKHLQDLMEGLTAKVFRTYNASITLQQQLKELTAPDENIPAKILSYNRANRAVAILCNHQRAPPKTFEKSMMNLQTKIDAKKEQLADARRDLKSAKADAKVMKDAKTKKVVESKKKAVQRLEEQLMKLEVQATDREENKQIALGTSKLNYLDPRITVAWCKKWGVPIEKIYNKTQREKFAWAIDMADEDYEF
Description: Approximately 2 nM radiolabeled DNA substrate was incubated with recombinant Top in 20 μL of reaction buffer [10 mM Tris-HCl (pH 7.5), 50 mM KCl, 5 mM MgCl2, 0.1 mM EDTA, and 15 μg/mL BSA] at 25° C. for 20 min in the presence of various concentrations of test compounds. […] Aliquots of each reaction mixture were subjected to 20% denaturing PAGE.
The Top1-mediated DNA cleavage assay was used to measure Top1 inhibitory activity. This assay measures the ability of the compound to stabilize DNA cleavage in a 3′-[^32P]-labeled DNA substrate via Top1 poisoning.

recombinant human TDP2 = molecular target: T2, recombinant human TDP2 (Homo sapiens, UniProt O95551); experiment: Recombinant TDP2 assay; type: biochemical; conditions: recombinant human TDP2, gel-based; read-out: TDP2: IC50 values for the inhibition of TDP2
T2 sequence (O95551 1-362): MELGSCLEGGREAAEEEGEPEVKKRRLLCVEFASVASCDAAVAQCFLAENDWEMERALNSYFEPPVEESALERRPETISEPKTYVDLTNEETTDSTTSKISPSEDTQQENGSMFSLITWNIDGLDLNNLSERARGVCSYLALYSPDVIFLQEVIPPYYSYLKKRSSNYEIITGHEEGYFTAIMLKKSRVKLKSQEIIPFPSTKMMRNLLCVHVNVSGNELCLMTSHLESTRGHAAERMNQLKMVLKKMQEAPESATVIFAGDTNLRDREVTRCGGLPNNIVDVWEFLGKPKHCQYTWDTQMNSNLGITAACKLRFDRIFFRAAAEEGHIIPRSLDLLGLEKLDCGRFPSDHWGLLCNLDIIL
Source text: Reactions were terminated and treated similarly to recombinant TDP1 reactions.
TDP2, as opposed to TDP1, cleaves the phosphotyrosyl linkage in 5′-phosphotyrosyl-DNA oligonucleotides.

recombinant TDP1 = recombinant TDP1 (Homo sapiens, UniProt Q9NUW8); experiment: Recombinant TDP1 assay; type: biochemical; conditions: recombinant TDP1, gel-based; read-out: TDP1: IC50 values for the inhibition of TDP1
recombinant TDP1, sequence (Q9NUW8 whole entry, species assumed): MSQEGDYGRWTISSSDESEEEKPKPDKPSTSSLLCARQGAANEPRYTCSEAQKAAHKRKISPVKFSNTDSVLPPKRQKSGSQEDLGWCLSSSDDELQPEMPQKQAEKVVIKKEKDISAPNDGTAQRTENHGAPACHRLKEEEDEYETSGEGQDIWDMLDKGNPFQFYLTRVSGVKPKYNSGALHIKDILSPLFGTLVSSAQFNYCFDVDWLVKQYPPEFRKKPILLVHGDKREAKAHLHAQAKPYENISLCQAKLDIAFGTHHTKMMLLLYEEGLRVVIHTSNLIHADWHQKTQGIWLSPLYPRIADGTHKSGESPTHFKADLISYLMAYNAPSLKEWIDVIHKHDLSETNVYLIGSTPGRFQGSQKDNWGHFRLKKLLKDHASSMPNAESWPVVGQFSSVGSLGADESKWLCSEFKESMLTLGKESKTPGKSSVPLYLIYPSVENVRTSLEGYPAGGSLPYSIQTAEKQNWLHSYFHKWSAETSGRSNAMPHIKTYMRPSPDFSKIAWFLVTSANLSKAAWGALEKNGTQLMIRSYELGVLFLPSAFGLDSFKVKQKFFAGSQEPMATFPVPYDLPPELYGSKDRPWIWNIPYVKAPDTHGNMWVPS
Description: A 5′-[^32P]-labeled single-stranded DNA oligonucleotide containing a 3′-phosphotyrosine (N14Y) was incubated at 1 nM with 10 pM recombinant TDP1 in the absence or presence of inhibitor for 15 min at room temperature in the LMP1 assay buffer containing 50 mM Tris HCl, pH 7.5, 80 mM KCl, 2 mM EDTA, 1 mM DTT, 40 μg/mL BSA, and 0.01% Tween-20^18. […] Gels were dried and exposed to a PhosphorImager screen (GE Healthcare). Gel images were scanned using a Typhoon 8600 (GE Healthcare), and densitometry analyses were performed using ImageQuant software (GE Healthcare).
TDP1 is involved in the repair of DNA damage that results from the action of Top1 poisons, which induce the formation of DNA-protein adducts that include a 3′-phosphotyrosyl linkage. The TDP1 inhibition assay assesses a test agent's ability to inhibit the enzyme-induced cleavage of a 5′-^32P, 3′-phosphotyrosyl-DNA oligonucleotide, called N14Y. Cleavage of the phosphodiester bond between the 3′-phosphate and tyrosine releases […] from the DNA oligonucleotide. The enzyme-processed DNA oligonucleotide lacking its 3′-phosphotyrosyl moiety is designated N14P. A schematic representation of the assay and a representative gel are shown in FIG. 2, and the TDP1 screening results are listed in Table 1.

O=C1c2ccccc2-c2c1c1ncccc1c(=O)n2C[C@H](O)CO [Compound 48, (2′S)-1-Aza-5,6-dihydro-6-(2′,3′-dihydroxypropyl)-5,11-dioxo-indeno[1,2-c]isoquinoline]
Mean Growth % [1]: 100% | Top 1: compound-induced DNA cleavage due to Top1 poisoning (Top1): + (+, between 20 and 50%activity) | IC50 (recombinant human TDP2): > 111 µM | melting point: 245 to 250 °C (dec.) | IC50 (recombinant TDP1): > 111 µM

NCCCn1c2c(c3cnccc3c1=O)C(=O)c1ccccc1-2 (as salt: hydrochloride) [Compound 58, 6-(3-Aminopropyl)-2-aza-5,6-dihydro-5,11-dioxo-indeno[1,2-c]isoquinoline Dihydrochloride]
melting point: 272 to 274 °C

NCCCn1c2c(c3ncccc3c1=O)C(=O)c1ccccc1-2 (as salt: hydrochloride) [Compound 57, 6-(3-Aminopropyl)-1-aza-5,6-dihydro-5,11-dioxo-indeno[1,2-c]isoquinoline Dihydrochloride]
melting point: 226 to 228 °C

NCCCn1c2c(c3ncccc3c1=O)C(=O)c1ccccc1-2 [Compound 57, 6-(3-Aminopropyl)-1-aza-5,6-dihydro-5,11-dioxo-indeno[1,2-c]isoquinoline Dihydrochloride]
Top 1: compound-induced DNA cleavage due to Top1 poisoning (Top1): ++ (++, between 50 and 75% activity) | IC50 (recombinant human TDP2): > 111 µM | IC50 (recombinant TDP1): 43 µM and 63 µM

O=C1c2ccccc2-c2c1c1ccncc1c(=O)n2CCCn1ccnc1 [Compound 42, 3-Aza-5,6-dihydro-6-(3-(1H-imidazol-1-yl)propyl)-5,11-dioxo-11H-indeno[1,2-c]isoquinoline]
Mean Growth % [1]: 47.5% | Top 1: compound-induced DNA cleavage due to Top1 poisoning (Top1): + (+, between 20 and 50%activity) | IC50 (recombinant human TDP2): > 111 µM | melting point: 251 to 252 °C | IC50 (recombinant TDP1): > 111 µM

O=C1c2ccccc2-c2c1c1ncccc1c(=O)n2CCCN1CCOCC1 [Compound 36, 1-Aza-5,6-dihydro-6-(3-morpholinopropyl)-5,11-dioxo-indeno[1,2-c]isoquinoline]
Mean Growth % [1]: 87.9% | Top 1: compound-induced DNA cleavage due to Top1 poisoning (Top1): ++ (++, between 50 and 75% activity) | IC50 (recombinant human TDP2): > 111 µM | melting point: 223 to 224 °C | IC50 (recombinant TDP1): > 111 µM

NCCCn1c2c(c3cnccc3c1=O)C(=O)c1ccccc1-2 [Compound 58, 6-(3-Aminopropyl)-2-aza-5,6-dihydro-5,11-dioxo-indeno[1,2-c]isoquinoline Dihydrochloride]
Top 1: compound-induced DNA cleavage due to Top1 poisoning (Top1): ++ (++, between 50 and 75% activity) | IC50 (recombinant human TDP2): ~111 µM | IC50 (recombinant TDP1): 19 µM and 30 µM

CN(C)CCCn1c2c(c3ncccc3c1=O)C(=O)c1ccccc1-2 [Compound 44, 1-Aza-5,6-dihydro-6-(3-(dimethylamino)propyl)-5,11-dioxo-indeno[1,2-c]isoquinoline]
Mean Growth % [1]: 44.4% | Top 1: compound-induced DNA cleavage due to Top1 poisoning (Top1): ++ (++, between 50 and 75% activity) | IC50 (recombinant human TDP2): > 111 µM | melting point: 187 to 188 °C | IC50 (recombinant TDP1): 90 µM

NCCCn1c2c(c3ccncc3c1=O)C(=O)c1ccccc1-2 [Compound 59, 6-(3-Aminopropyl)-3-aza-5,6-dihydro-5,11-dioxo-indeno[1,2-c]isoquinoline Dihydrochloride]
IC50 (recombinant human TDP2): ~111 µM | IC50 (recombinant TDP1): 30 µM and 48 µM

O=C1c2ccccc2-c2c1c1ccncc1c(=O)n2CCCN1CCOCC1 [Compound 38, 3-Aza-5,6-dihydro-6-(3-morpholinopropyl)-5,11-dioxo-11H-indeno[1,2-c]isoquinoline]
Top 1: compound-induced DNA cleavage due to Top1 poisoning (Top1): ++ (++, between 50 and 75% activity) | IC50 (recombinant human TDP2): > 111 µM | melting point: 210 to 211 °C | IC50 (recombinant TDP1): > 111 µM

O=C1c2ccccc2-c2c1c1cnccc1c(=O)n2C[C@H](O)CO [Compound 49, (2′S)-2-Aza-5,6-dihydro-6-(2′,3′-dihydroxypropyl)-5,11-dioxo-indeno[1,2-c]isoquinoline]
Mean Growth % [1]: 85.5% | Top 1: compound-induced DNA cleavage due to Top1 poisoning (Top1): + (+, between 20 and 50%activity) | IC50 (recombinant human TDP2): > 111 µM | melting point: 229 to 232 °C | IC50 (recombinant TDP1): > 111 µM

O=C1c2ccccc2-c2c1c1cccnc1c(=O)n2CCCn1ccnc1 [Compound 43, 4-Aza-5,6-dihydro-6-(3-(1H-imidazol-1-yl)propyl)-5,11-dioxo-indeno[1,2-c]isoquinoline]
Mean Growth % [1]: 49.6% | Top 1: compound-induced DNA cleavage due to Top1 poisoning (Top1): +++ (+++, between 75 and 95% activity) | IC50 (recombinant human TDP2): > 111 µM | melting point: 251 to 252 °C | IC50 (recombinant TDP1): > 111 µM

O=C1c2ccccc2-c2c1c1cnccc1c(=O)n2CCCN1CCOCC1 [Compound 37, 2-Aza-5,6-dihydro-6-(3-morpholinopropyl)-5,11-dioxo-indeno[1,2-c]isoquinoline]
Top 1: compound-induced DNA cleavage due to Top1 poisoning (Top1): +++ (+++, between 75 and 95% activity) | IC50 (recombinant human TDP2): > 111 µM | melting point: 218 to 219 °C | IC50 (recombinant TDP1): > 111 µM

O=C1c2ccccc2-c2c1c1ccncc1c(=O)n2C[C@H](O)CO [Compound 50, (2′S)-3-Aza-5,6-dihydro-6-(2′,3′-dihydroxypropyl)-5,11-dioxo-indeno[1,2-c]isoquinoline]
Top 1: compound-induced DNA cleavage due to Top1 poisoning (Top1): ++ (++, between 50 and 75% activity) | melting point: 237 to 238 °C

NCCCn1c2c(c3cccnc3c1=O)C(=O)c1ccccc1-2 (as salt: hydrochloride) [Compound 60, 6-(3-Aminopropyl)-4-aza-5,6-dihydro-5,11-dioxo-indeno[1,2-c]isoquinoline Dihydrochloride]
melting point: 284 to 286 °C

NCCCn1c2c(c3ccncc3c1=O)C(=O)c1ccccc1-2 (as salt: hydrochloride) [Compound 59, 6-(3-Aminopropyl)-3-aza-5,6-dihydro-5,11-dioxo-indeno[1,2-c]isoquinoline Dihydrochloride]
melting point: 253 to 254 °C

From patent US10759795B2, “Aza-A-ring indenoisoquinoline topoisomerase I poisons” (Purdue Research Foundation, priority 2016, dated 2020)
